# Laboratory results: paper PMC8605905 (Oxidative Medicine and Cellular Longevity, 2021)
# Read-outs that look alike come from different tables or passages of the source.
# Key:
# ΔK280 tauRD protein = target: T1, ΔK280 tauRD protein (Homo sapiens, UniProt P10636, DEL597-597); assay: Thioflavin T assay of ΔK280 tauRD aggregation; format: biochemical
# T1 construct: E. coli-derived ΔK280 tauRD protein; made in house; host or cells: E. coli
# Protocol: The potential of Congo red and coumarin-chalcone derivatives in inhibiting tau misfolding was assessed using the E. coli-derived ΔK280 tauRD protein [21]. In brief, ΔK280 tauRD protein (20 μM) was incubated with the tested compound (1−10 μM) in buffer (150 mM NaCl, 20 mM Tris-HCl (pH 8.0)) at 37°C for 48 h to form aggregates. Thioflavin T (5 μM) was then added, and the mixture was incubated at room temperature for 25 min. The fluorescence intensity of the samples was measured, and the EC50 was computed as described.
# [1] = test system: ∆K280 tauRD-DsRed SH-SY5Y cells; assay: High content analysis of ΔK280 tauRD-DsRed fluorescence; format: cell-based, Human; settings: for EC50: Homo sapiens, read-out: Extrapolated EC50 in inhibiting ∆K280 tauRD aggregation (DsRed fluorescence)
# Protocol: Human 293-derived Flp-In-293 cells (Invitrogen, Madison, WI, USA) were cultivated in Dulbecco's modified Eagle's medium (DMEM) containing 10% foetal bovine serum (FBS) (Thermo Fisher Scientific). Human neuroblastoma SH-SY5Y-derived Aβ-GFP [23] and ∆K280 tauRD-DsRed cells were kept in DMEM/nutrient mixture F12 (DMEM/F12) containing 10% FBS, 5 μg/ml blasticidin, and 100 μg/ml hygromycin (InvivoGen, San Diego, CA, USA). Doxycycline (Sigma-Aldrich) was applied to induce the expression of Aβ-GFP (5 μg/ml doxycycline) or ∆K280 tauRD-DsRed (2 μg/ml doxycycline).
# (§1) On day 1, Aβ-GFP or ∆K280 tauRD-DsRed SH-SY5Y cells were seeded into 96-well plates (2.5 × 10^4/well) and treated with retinoic acid (10 μM; Sigma-Aldrich) to prompt neuronal differentiation. […] On day 8, cells were stained with Hoechst 33342 (0.1 μg/ml; Sigma-Aldrich) for 30 min, and cell images were automatically captured at excitation/emission wavelengths of 482/[…] (GFP fluorescence) or 543/593 nm (DsRed fluorescence) using a high content analysis (HCA) system (Micro Confocal High-Content Imaging System). Image Acquisition and Analysis Software (MetaXpress) (Molecular Devices, Sunnyvale, CA, USA) was used to analyse the images. CellROX Orange (5 μM; Molecular Probes, Eugene, OR, USA) (for Aβ-GFP cells) or dichloro-dihydro-fluorescein diacetate (DCFH-DA, 10 μM; Invitrogen) (for ∆K280 tauRD-DsRed cells) was added to the cells and incubated at 37°C for 30 min. The HCA system was used to measure intracellular ROS at 531/593 nm (CellROX Orange fluorescence) or 482/536 nm (DCFH-DA fluorescence) of excitation/emission wavelengths.
# [2] = test system: ∆K280 tauRD-DsRed SH-SY5Y cells; assay: Real-time PCR of tauRD-DsRed RNA; format: cell-based, Human; settings: 10 μM
# Protocol: (§2) To measure the Aβ-GFP/tauRD-DsRed RNA expression on day 8, total RNA was extracted from collected cells and reverse-transcribed to cDNA (SuperScript III reverse transcriptase; Invitrogen, Waltham, MA, USA). Real-time quantitative PCR was performed using 100 ng of cDNA and the gene-specific TaqMan fluorogenic probe PN4331348 (EGFP) or customized Assays-by-Design probe for DsRed and 4326321E (HPRT1) (StepOnePlus Real-time PCR system, Applied Biosystems, Foster City, CA, USA). The RNA expression level was calculated using the formula 2^ΔCt, ΔCT = CT (control) − CT (target), in which CT indicates the cycle threshold.
# caspase 1 [3] = assay: Caspase 1 activity in ΔK280 tauRD-DsRed cells; format: cell-based, Human; settings: 10 μM, ∆K280 tauRD-DsRed cells
# Protocol: (§3) Aβ-GFP or ∆K280 tauRD-DsRed SH-SY5Y cells were seeded into 6-well plates (5 × 10^5/well) and treated with retinoic acid, coumarin-chalcone derivatives, and doxycycline as previously described. On day 8, cells were collected and lysates were prepared with six freeze/thaw cycles. The supernatant was collected by centrifugation, followed by measurement of the caspase 1 activity in 50 μg aliquots of cell extract using the ICE fluorometric assay kit (BioVision, Milpitas, CA, USA). Following incubation of the mixture at 37°C for 2 h, fluorescence was measured with excitation/emission wavelengths at 400/505 nm (FLx800 fluorescence microplate reader). In addition, the collected cells were lysed by sonication. Acetylcholinesterase (AChE) activity in the supernatant was determined in 10 μg aliquots of cell extracts using the AChE activity assay kit (Sigma-Aldrich) according to the manufacture's protocol. Finally, the absorbance at 412 nm was measured using a Multiskan GO spectrophotometer (Thermo Fisher Scientific).
# [4] = test system: ∆K280 tauRD-DsRed SH-SY5Y cells; assay: High content analysis of neurite outgrowth in ΔK280 tauRD-DsRed cells; format: cell-based, Human; settings: 10 μM
# Protocol: On day 1, Aβ-GFP or ∆K280 tauRD-DsRed SH-SY5Y cells were plated into 24-well plates (6 × 10^4/well) followed by addition of retinoic acid. On day 2, cells were treated with coumarin-chalcone derivatives (5 or 10 μM) and with doxycycline (5 or 2 μg/ml) to induce the expression of Aβ-GFP or ∆K280 tauRD-DsRed. On day 8, 4% paraformaldehyde, 0.1% Triton X-100, and 3% BSA were used to fix, permeabilize, and block cells, respectively. Subsequently, the cells were stained with TUBB3 (neuronal class III β-tubulin) primary antibody (1 : 1000; Covance, Princeton, NJ, USA) at 4°C overnight. Goat anti-rabbit Alexa Fluor 555 secondary antibody (1 : 1000; Thermo Fisher Scientific) was then added, followed by a 3 h incubation at room temperature. Following staining nuclei with 4′,-6-diamidino-2-phenylindole (DAPI) (0.1 μg/ml; Sigma-Aldrich), the neurons were imaged by using the HCA system and analysed by using the Neurite Outgrowth Application Module (MetaXpress; Molecular Devices).
# To monitor the cAMP-mediated signal transduction pathway, CRE-GFP 293 cells in 6-well plates (1 × 10^6/well) were pretreated with kinase inhibitor H-89 (LC Laboratories, Woburn, MA, USA), KN-62 (Cayman Chemical, Ann Arbor, MI, USA), U0126 (LC Laboratories), or wortmannin (LC Laboratories) (10 μM) for 4 h before forskolin or LM-021 (10 μM) addition for 5 h. GFP fluorescence/protein and total/phosphorylated PKA, CaMKII, ERK, PI3K, and CREB levels were examined. In addition, Aβ-GFP or ∆K280 tauRD-DsRed SH-SY5Y cells were treated with retinoic acid (10 μM) on day 1, followed by the addition of LM-021 (5 or 10 μM) and doxycycline (5 or 2 μg/ml) on day 2, as described. Kinase inhibitors (10 μM) were added on day 6. On day 8, the cells were collected for protein expression analysis of BDNF, BCL2 (BCL2 apoptosis regulator), and BAX (BCL2 associated X, apoptosis regulator), and total/phosphorylated PKA, CaMKII, ERK, PI3K, and CREB. Also, cells were stained with DAPI and assessed for neurite outgrowth as described above.
# [5] = DPPH radical-scavenging assay; settings: compounds 10–160 μM, 100 μM DPPH, 30 min, n = 3
# Protocol: Stable free radical 1,1-diphenyl-2-picrylhydrazyl (DPPH) (Sigma-Aldrich) was applied to test the potential radical-scavenging activity of the coumarin-chalcone derivatives. In brief, the compounds (10–160 μM) were added to an ethanol solution containing 100 μM DPPH. The mixture was vortexed for 15 sec, left to stand for 30 min at room temperature, and scavenging capacity was measured at a wavelength of 517 nm using a Multiskan GO microplate spectrophotometer (Thermo Fisher Scientific, Waltham, MA, USA).
# Aβ42 peptide = target: T2, Aβ42 peptide (Homo sapiens, UniProt P05067); assay: Thioflavin T assay of Aβ aggregation; format: biochemical; settings: Aβ42 5 μM, compound 5–20 μM, 37°C 48 h; read-out: Aβ aggregation inhibition EC50 (Thioflavin T)
# T2 construct: containing Aβ42 peptide (5 μM); purchased AnaSpec; host or cells: synthetic
# Protocol: In brief, the tested compound (5–20 μM) was added to a buffer solution (150 mM NaCl, 20 mM Tris-HCl (pH 8.0)) containing Aβ42 peptide (5 μM) and incubated at 37°C for 48 h. Thioflavin T (10 μM) (Sigma-Aldrich) then was added, and the mixture was incubated for 5 min at room temperature. Subsequently, the fluorescence intensity was quantified at 420/485 nm of excitation/emission wavelengths using a FLx800 microplate reader (Bio-Tek, Winooski, VT, USA). EC50 was computed as described.
# Aβ-GFP SH-SY5Y cells [6] = assay: High content analysis of Aβ-GFP fluorescence; format: cell-based, Human; settings: for EC50: Homo sapiens, read-out: EC50 in Aβ aggregation inhibition (GFP fluorescence); for Concentration significantly augmenting green fluorescence intensity (Aβ-GFP): day 8
# Protocol: Human neuroblastoma SH-SY5Y-derived Aβ-GFP [23] and ∆K280 tauRD-DsRed cells were kept in DMEM/nutrient mixture F12 (DMEM/F12) containing 10% FBS, 5 μg/ml blasticidin, and 100 μg/ml hygromycin (InvivoGen, San Diego, CA, USA). Doxycycline (Sigma-Aldrich) was applied to induce the expression of Aβ-GFP (5 μg/ml doxycycline) or ∆K280 tauRD-DsRed (2 μg/ml doxycycline).
# On day 1, Aβ-GFP or ∆K280 tauRD-DsRed SH-SY5Y cells were seeded into 96-well plates (2.5 × 10^4/well) and treated with retinoic acid (10 μM; Sigma-Aldrich) to prompt neuronal differentiation. […] Image Acquisition and Analysis Software (MetaXpress) (Molecular Devices, Sunnyvale, CA, USA) was used to analyse the images. CellROX Orange (5 μM; Molecular Probes, Eugene, OR, USA) (for Aβ-GFP cells) or dichloro-dihydro-fluorescein diacetate (DCFH-DA, 10 μM; Invitrogen) (for ∆K280 tauRD-DsRed cells) was added to the cells and incubated at 37°C for 30 min.
# Aβ-GFP SH-SY5Y cells [7] = assay: ROS assay (CellROX Orange) in Aβ-GFP cells; format: cell-based, Human; settings: tested 1.2–5 μM
# Protocol: as §1
# Aβ-GFP SH-SY5Y cells [8] = assay: Real-time PCR of Aβ-GFP RNA; format: cell-based, Human; settings: 5 μM
# Protocol: as §2
# caspase 1 [9] = assay: Caspase 1 activity in Aβ-GFP cells; format: cell-based, Human; settings: 5 μM, vs untreated cells
# Protocol: as §3
# [10] = test system: Acetylcholinesterase (AChE); assay: AChE activity in Aβ-GFP cells; format: cell-based; settings: 5 μM, vs untreated cells
# Protocol: as §3
# physchem = format: physicochemical; settings: aqueous buffer
# Protocol: The coumarin-chalcone derivatives (E)-4-hydroxy-3-(3-(p-tolyl)acryloyl)-2H-chromen-2-one (LM-016), (E)-3-(3-(4-(dimethylamino)phenyl)acryloyl)-4-hydroxy-2H-chromen-2-one (LM-021), and (E)-3-(3-(furan-2-yl)acryloyl)-4-hydroxy-2H-chromen-2-one (LM-022) were synthesized in our laboratory as previously described and examined by using NMR spectroscopy. The LM-016, LM-021, and LM-022 stayed soluble in cell culture medium at concentrations up to 100 μM.
# [11] = ∆K280 tauRD-DsRed SH-SY5Y cells, tested 2.5–10 μM
# T2 sequence (P05067 672-713 limits assumed): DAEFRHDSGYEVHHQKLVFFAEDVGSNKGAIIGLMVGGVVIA
# T1 sequence (P10636 with tags, fused parts or gaps DEL597-597): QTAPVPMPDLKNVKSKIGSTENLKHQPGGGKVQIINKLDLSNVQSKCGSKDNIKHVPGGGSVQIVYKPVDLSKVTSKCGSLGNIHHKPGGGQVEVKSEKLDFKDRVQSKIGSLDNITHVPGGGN
Compound,EC50 (ΔK280 tauRD protein),"EC50 [1, 11]","Concentration significantly elevating DsRed fluorescence intensity ([1]; tested 2.5–10 μM, day 8)",∆K280 tauRD-DsRed RNA level [2],Caspase 1 activity (caspase 1 [3]),Neurite length and branches [4],EC50 [5],EC50 (Aβ42 peptide),EC50 (Aβ-GFP SH-SY5Y cells [6]; SH-SY5Y),Concentration significantly augmenting green fluorescence intensity (Aβ-GFP) (Aβ-GFP SH-SY5Y cells [6]; tested 1.2–5 μM),Concentration effectively decreasing ROS levels caused by Aβ overexpression (Aβ-GFP SH-SY5Y cells [7]),Aβ-GFP RNA levels (Aβ-GFP SH-SY5Y cells [8]),Caspase 1 activity (caspase 1 [9]),AChE activity [10],EC50 ([1]; SH-SY5Y),"solubility (physchem; cell culture medium, read-out: Concentration up to which the compound stayed soluble)","EC50 (Aβ-GFP SH-SY5Y cells [6]; Aβ-GFP SH-SY5Y cells, tested 1.2–5 μM)",solubility (physchem)
"Nc1c(/N=N/c2ccc(-c3ccc(/N=N/c4cc(S(=O)(=O)O)c5ccccc5c4N)cc3)cc2)cc(S(=O)(=O)O)c2ccccc12 [Congo red, reference compound]",10 µM,57 µM,10 µM,did not significantly alter,lowered caspase 1 activity,successfully ameliorated,,,,,,,,,,,,
"Cc1ccc(/C=C/C(=O)c2c(O)c3ccccc3oc2=O)cc1 [LM-016, (E)-4-hydroxy-3-(3-(p-tolyl)acryloyl)-2H-chromen-2-one]",,,,,,,126 µM,15 µM,7 µM,2.5 to 5 µM,2.5 to 5 µM,did not significantly modify,reduced,reduced,70 µM,≥ 100 µM,,
"O=C(/C=C/c1ccco1)c1c(O)c2ccccc2oc1=O [LM-022, (E)-3-(3-(furan-2-yl)acryloyl)-4-hydroxy-2H-chromen-2-one]",,73 µM,,,,,143 µM,18 µM,,2.5 to 5 µM,2.5 to 5 µM,did not significantly modify,,,,,8.2 µM,≥ 100 µM
